In ChEMBL document CHEMBL5346916, “Discovery of acridine-based LSD1 inhibitors as immune activators targeting LSD1 in gastric cancer” (Eur J Med Chem, 2023):
Active and inactive are the calls of the source. The rule behind the calls is not given here.

Experiments:
[1] = biological target: T1, Lysine-specific histone demethylase 1A (Homo sapiens, UniProt O60341); assay: Inhibition of recombinant LSD1 (unknown origin) expressed in Escherichia coli BL21(DE3) strain using H3K4me2 peptide as substrate at 10 uM incubated for 30 mins by fluorescence based analysis relative to control
[2] = biological target: T1, Lysine-specific histone demethylase 1A; assay: Inhibition of recombinant LSD1 (unknown origin) expressed in Escherichia coli BL21(DE3) strain using H3K4me2 peptide as substrate incubated for 30 mins by fluorescence based analysis
MFC [3] = assay: Antitumor activity against mouse MFC cells xenografted in 615 mouse model assessed as reduction in tumor weight at 10 to 40 mg/kg, IG administered daily and measured every other day for 14 days […]; format: functional, organism-based; conditions: dose 10-40 mg/kg, time 14.0 day
[4] = biological target: T1, Lysine-specific histone demethylase 1A; assay: Binding affinity to recombinant LSD1 (unknown origin) assessed as thermal stability at 4 uM by thermal shift assay
BGC-823 [5] = assay: Cytotoxicity against human BGC-823 cells co-cultured with T cells assessed as reduction in cell viability measured after 5 days by CCK8 method; format: functional, cell-based; conditions: dose 1-4 µM, time 5.0 day
MFC [6] = assay: Downregulation of PD-L1 mRNA level in […] cells at 1 to 4 uM incubated for 5 days by Q-RT-PCR analysis; format: functional, cell-based; conditions: dose 1-4 µM, time 5.0 day
[7] = Cytotoxicity against […] cells at 2 uM incubated for 5 days by CCK-8 method relative to control; format: functional; conditions: time 5 day
[8] = Toxicity in 615 mouse assessed as at 10 to 40 mg/kg, IG kidney injury administered daily and measured every other day for 14 days; format: organism-based; conditions: in vivo, po, 336 h, dose 10-40 mg/kg, time 14 day
BGC-823 [9] = assay: Downregulation of PD-L1 level in human BGC-823 cells incubated for 5 days by Western blot analysis; format: functional, cell-based; conditions: dose 1-4 µM, time 5.0 day
[10] = biological target: Programmed cell death protein 1/Programmed cell death 1 ligand 1 (Homo sapiens) (UniProt Q15116+Q9NZQ7); assay: Inhibition of recombinant PD-1 binding to PD-L1 in human BGC-823 cells measured after 5 days by DAPI staining based confocal microscopy analysis; format: cell-based; conditions: dose 1-4 µM, time 5.0 day
BGC-823 [11] = assay: Downregulation of PD-L1 mRNA level in human BGC-823 cells at 1 to 4 uM incubated for 5 days by Q-RT-PCR analysis; format: functional, cell-based; conditions: dose 1-4 µM, time 5.0 day
[12] = biological target: T1, Lysine-specific histone demethylase 1A; assay: Inhibition of LSD1 in human BGC-823 cells assessed as suppression of H3K4me2 methylation measured after 5 days by Western blot analysis; format: cell-based; conditions: dose 1-4 µM, time 5.0 day
BGC-823 [13] = assay: Inhibition of stemness in human BGC-823 cells assessed as inhibition of SOX2 expression at 1 to 4 uM measured after 5 days by Western blot analysis; format: functional, cell-based; conditions: dose 1-4 µM, time 5.0 day
BGC-823 [14] = assay: Cytotoxicity against human BGC-823 cells co-cultured with T cells assessed as increase in CCR7 level at 2 uM measured after 5 days by Q-RT-PCR method; format: functional, cell-based; conditions: time 5.0 day
BGC-823 [15] = assay: Inhibition of stemness in human BGC-823 cells assessed as inhibition of CD44 expression at 1 to 4 uM measured after 5 days by Western blot analysis; format: functional, cell-based; conditions: dose 1-4 µM, time 5.0 day
MFC [16] = assay: Downregulation of PD-L1 level in […] cells incubated for 5 days by Western blot analysis; format: functional, cell-based; conditions: dose 1-4 µM, time 5.0 day
BGC-823 [17] = assay: Cytotoxicity against human BGC-823 cells co-cultured with T cells assessed as increase in IFN-gamma level at 2 uM measured after 5 days by Q-RT-PCR method; format: functional, cell-based; conditions: time 5.0 day
MFC [18] = assay: Antitumor activity against mouse MFC cells xenografted in 615 mouse model assessed as increase in IL-2 m-RNA level at 10 to 40 mg/kg, IG administered daily and measured every other day for 14 days; format: functional, organism-based; conditions: dose 10-40 mg/kg, time 14.0 day
BGC-823 [19] = assay: Cytotoxicity against human BGC-823 cells co-cultured with T cells assessed as increase in IL-2 level at 2 uM measured after 5 days by Q-RT-PCR method; format: functional, cell-based; conditions: time 5.0 day
MFC [20] = assay: Antitumor activity against mouse MFC cells xenografted in 615 mouse model assessed as suppression in tumor growth administered as IG daily and measured every other day for 14 days by caliper method; format: functional; conditions: dose 10-40 mg/kg, time 14.0 day
MFC [21] = assay: Antitumor activity against mouse MFC cells xenografted in 615 mouse model assessed as increase in TNF-alpha m-RNA level at 10 to 40 mg/kg, IG administered daily and measured every other day for 14 days; format: functional, organism-based; conditions: dose 10-40 mg/kg, time 14.0 day
BGC-823 [22] = assay: Inhibition of stemness in human BGC-823 cells assessed as inhibition of OCT4 expression at 1 to 4 uM measured after 5 days by Western blot analysis; format: functional, cell-based; conditions: dose 1-4 µM, time 5.0 day
[23] = Toxicity in 615 mouse assessed as change in body weight at 10 to 40 mg/kg, IG administered daily and measured every other day for 14 days; format: organism-based; conditions: in vivo, po, 336 h, dose 10-40 mg/kg, time 14 day
[24] = biological target: T1, Lysine-specific histone demethylase 1A; assay: Inhibition of LSD1 (unknown origin) human BGC-823 cells assessed as suppression of H3K4me1 methylation measured after 5 days by Western blot analysis; format: cell-based; conditions: dose 1-4 µM, time 5.0 day
MFC [25] = assay: Antitumor activity against mouse MFC cells xenografted in 615 mouse model assessed as decrease in PD-L1 level administered as IG daily and measured every other day for 14 days by Western blot analysis; format: functional; conditions: dose 10-40 mg/kg, time 14.0 day
BGC-823 [26] = assay: Cytotoxicity against human BGC-823 cells co-cultured with T cells assessed as increase in TNF-alpha level at 2 uM measured after 5 days by Q-RT-PCR method; format: functional, cell-based; conditions: time 5.0 day
[27] = Toxicity in 615 mouse assessed as at 10 to 40 mg/kg, IG liver injury administered daily and measured every other day for 14 days; format: organism-based; conditions: in vivo, po, 336 h, dose 10-40 mg/kg, time 14 day
MFC [28] = assay: Antitumor activity against mouse MFC cells xenografted in 615 mouse model assessed as increase in IFN-gamma m-RNA level at 10 to 40 mg/kg, IG administered daily and measured every other day for 14 days; format: functional, organism-based; conditions: dose 10-40 mg/kg, time 14.0 day
BGC-823 [29] = assay: Antimigratory activity against human BGC-823 cells assessed as reduction in cell migration at 1 to 4 uM measured after 24 to 48 hrs by wound healing assay; format: functional, cell-based; conditions: dose 1-4 µM, time 24-48 hrs
BGC-823 [30] = assay: Cytotoxicity against human BGC-823 cells co-cultured with T cells assessed as increase in 4-1BB level at 2 uM measured after 5 days by Q-RT-PCR method; format: functional, cell-based; conditions: time 5.0 day

Compound `CC(C)c1ccc(Nc2c3ccccc3nc3ccccc23)cc1` has an inhibition [1] of 43.4%.
With `c1ccc2c(NCCN3CCOCC3)c3ccccc3nc2c1` the inhibition [1] was 22.4%.
Work on `c1ccc2c(Nc3ccc(N4CCNCC4)cc3)c3ccccc3nc2c1` yielded an IC50 [2] of 220 nM and an inhibition [1] of 100%.
`COc1ccc2c(Nc3ccc(N4CCN(C)CC4)cc3)c3ccccc3nc2c1` gave an IC50 [2] of 140 nM and an inhibition [1] of 100%.
Compound `CC(=O)Nc1ccc(Nc2c3ccccc3nc3ccccc23)cc1` has an IC50 [2] of 3540 nM and an inhibition [1] of 67.8%.
With `COc1ccc2nc3ccccc3c(Nc3ccc(N4CCN(C)CC4)cc3)c2c1` the IC50 [2] was 230 nM and the inhibition [1] was 100%.
In the case of `Nc1ccccc1Nc1c2ccccc2nc2ccccc12`, the IC50 [2] is reported as 8230 nM and the inhibition [1] is reported as 100%.
In the case of `O=C1COCCN1c1ccc(Nc2c3ccccc3nc3ccccc23)cc1`, the inhibition [1] is reported as 41%.
In the case of `Cc1ccc(Nc2c3ccccc3nc3ccccc23)cc1`, the IC50 [2] is reported as 3620 nM and the inhibition [1] is reported as 57.9%.
Work on `NS(=O)(=O)c1ccc(Nc2c3ccccc3nc3ccccc23)cc1` yielded an inhibition [1] of 4.01%.
Work on `c1ccc(CN2CCN(c3ccc(Nc4c5ccccc5nc5ccccc45)cc3)CC2)cc1` yielded an IC50 [2] of 2390 nM and an inhibition [1] of 97%.
`CN1CCN(c2ccc(Nc3c4ccccc4nc4ccc(Cl)cc34)cc2)CC1` showed an IC50 [2] of 280 nM and an inhibition [1] of 100%.
Work on `CCn1c2ccccc2c2ccc(Nc3c4ccccc4nc4ccccc34)cc21` yielded an IC50 [2] of 700 nM and an inhibition [1] of 97.2%.
Compound `c1ccc2c(NN3CCCCC3)c3ccccc3nc2c1` has an IC50 [2] of 1660 nM and an inhibition [1] of 95.3%.
With `CC(C)c1ccc2nc3ccccc3c(Nc3ccc(N4CCN(C)CC4)cc3)c2c1` the IC50 [2] was 230 nM and the inhibition [1] was 100%.
`CN1CCN(c2ccc(Nc3c4ccccc4nc4c(N(C)C)cccc34)cc2)CC1` showed an IC50 [2] of 6030 nM and an inhibition [1] of 97%.
With `COc1cc(NS(C)(=O)=O)ccc1Nc1c2ccccc2nc2ccccc12` [AMSACRINE] the IC50 [2] was 880 nM and the inhibition [1] was 100%.
`COc1cccc2c(Nc3ccc(N4CCN(C)CC4)cc3)c3ccccc3nc12` showed an IC50 [2] of 130 nM and an inhibition [1] of 100%.
With `CN1CCN(c2ccc(Nc3c4ccccc4nc4ccccc34)cc2)CC1` the Activity (MFC [3]) was “Active”, the Activity [4] was “Active” and the Activity (BGC-823 [5]) was “Dose-Dependent Effect”. For the same compound, the Activity (MFC [6]) was “Active”, the Activity [7] was less than 10% and the Activity [8] was “Non-Toxic”. The Activity (BGC-823 [9]) was “Dose-Dependent Effect”, the inhibition [10] was “Dose-Dependent Effect” and the Activity (BGC-823 [11]) was “Active”. The inhibition [12] was “Dose-Dependent Effect”, the inhibition (BGC-823 [13]) was “Active” and the Activity (BGC-823 [14]) was “Active”. For the same compound, the inhibition (BGC-823 [15]) was “Active”, the Activity (MFC [16]) was “Dose-Dependent Effect” and the Activity (BGC-823 [17]) was “Active”. The Activity (MFC [18]) was “Active”, the IC50 [2] was 73 nM and the Activity (BGC-823 [19]) was “Active”. For the same compound, the Activity (MFC [20]) was “Dose-Dependent Effect”, the Activity (MFC [21]) was “Active” and the inhibition (BGC-823 [22]) was “Active”. The Activity [23] was “Toxic”, the inhibition [24] was “Dose-Dependent Effect” and the Activity (MFC [25]) was “Dose-Dependent Effect”. The Activity (BGC-823 [26]) was “Active”, the Activity [27] was “Non-Toxic” and the Activity (MFC [28]) was “Active”. The Activity (BGC-823 [29]) was “Active”, the inhibition [1] was 100% and the Activity (BGC-823 [30]) was “Active”.
Compound `Fc1ccc(C(c2ccc(F)cc2)N2CCN(c3ccc(Nc4c5ccccc5nc5ccccc45)cc3)CC2)cc1` has an IC50 [2] of 710 nM and an inhibition [1] of 68.1%.
For `CN1CCN(Cc2ccc(Nc3c4ccccc4nc4ccccc34)cc2)CC1`, the inhibition [1] was 45.6%.
Work on `Cc1ccc2nc3c(C)c(C)ccc3c(Nc3ccc(N4CCN(C)CC4)cc3)c2c1` yielded an IC50 [2] of 100 nM and an inhibition [1] of 100%.
`N#Cc1ccc(Nc2c3ccccc3nc3ccccc23)cc1` gave an inhibition [1] of 29.8%.
With `Cc1cnc(NS(=O)(=O)c2ccc(Nc3c4ccccc4nc4ccccc34)cc2)o1` the inhibition [1] was 19.2%.
In the case of `Cc1cc2nc3ccccc3c(Nc3ccc(N4CCN(C)CC4)cc3)c2cc1C`, the IC50 [2] is reported as 85 nM and the inhibition [1] is reported as 100%.
For `c1ccc2c(Nc3ccc(N4CCCCC4)cc3)c3ccccc3nc2c1`, the inhibition [1] was 25%.
`Nc1ccc(Sc2c3ccccc3nc3ccccc23)cc1` gave an IC50 [2] of 970 nM and an inhibition [1] of 100%.
Compound `c1ccc(Nc2c3ccccc3nc3ccccc23)cc1` has an IC50 [2] of 1050 nM and an inhibition [1] of 99.2%.
Work on `CCN1CCN(c2ccc(Nc3c4ccccc4nc4ccccc34)cc2)CC1` yielded an IC50 [2] of 110 nM and an inhibition [1] of 100%.
`c1ccc2c(Nc3ccc(N4CCOCC4)cc3)c3ccccc3nc2c1` showed an IC50 [2] of 450 nM and an inhibition [1] of 100%.
`COc1ccc(Nc2c3ccccc3nc3ccccc23)cc1` gave an IC50 [2] of 1160 nM and an inhibition [1] of 100%.
For `Nc1ccc(Nc2c3ccccc3nc3ccccc23)cc1`, the IC50 [2] was 600 nM and the inhibition [1] was 100%.
Compound `Nc1ccc(Oc2c3ccccc3nc3ccccc23)cc1` has an IC50 [2] of 1720 nM and an inhibition [1] of 100%.
Work on `Cc1ccc2cc(Nc3c4ccccc4nc4ccccc34)ccc2n1` yielded an IC50 [2] of 3860 nM and an inhibition [1] of 68.6%.
For `c1ccc2c(Nc3ccc4c(c3)OCCO4)c3ccccc3nc2c1`, the IC50 [2] was 850 nM and the inhibition [1] was 97.7%.
Work on `CSc1ccc(Nc2c3ccccc3nc3ccccc23)cc1` yielded an IC50 [2] of 740 nM and an inhibition [1] of 79.7%.
For `CS(=O)(=O)Nc1ccc(Nc2c3ccccc3nc3ccccc23)cc1`, the IC50 [2] was 660 nM and the inhibition [1] was 100%.
